Patent US20240409585A1, “MACROCYCLIC IMMUNOMODULATORS” (priority 2021, published 2024)
Where two headings read alike, the source gives them in different places. Bridge positions count the residues as written; N and C are the ends. Square brackets hold non-standard residues; d marks the D form. Peptide text beside a SMILES is read from it. * marks the point of attachment. Bip(4'-NHAc) = CC(=O)Nc1ccc(-c2ccc(C[C@H](N)C(=O)O)cc2)cc1; Phe(3-CF3) = N[C@@H](Cc1cccc(C(F)(F)F)c1)C(=O)O; Ala(morpholin-4-yl) = N[C@@H](CN1CCOCC1)C(=O)O; Phe(4-COOH) = N[C@@H](Cc1ccc(C(=O)O)cc1)C(=O)O; Bip = N[C@@H](Cc1ccc(-c2ccccc2)cc1)C(=O)O; Phe(3-Me) = Cc1cccc(C[C@H](N)C(=O)O)c1; Ala(cPr) = N[C@@H](CC1CC1)C(=O)O; Cha = N[C@@H](CC1CCCCC1)C(=O)O; Carboxymethyl = O=C(O)C*; NMeA = CN[C@@H](C)C(=O)O; Orn = NCCC[C@H](N)C(=O)O; Dab = NCC[C@H](N)C(=O)O

Target: T1, Alexa fluor-647 labeled human PD-L1-Ig binding to Jurkat cell line over-expressing human PD-1 (Homo sapiens, UniProt Q15116)
T1 construct: expressed in transfected cells; host or cells: Jurkat
Experiment: Jurkat-PD-1 Cell Binding High-Content Screening Assay (CBA): Method 3 (Alexa fluor-647 labeled PD-L1-Ig)
Conditions: Jurkat-PD-1 cells, Alexa fluor-647 labeled PD-L1-Ig 177 nM
How it was run: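 Jurkat cells over-expressing human PD-1 in RPMI/10% FCS were preincubated 2 h at 37 °C with compound, then exposed 1 h to Alexa fluor-647 labeled human PD-L1-Ig (177 nM final). Cells fixed in 4% paraformaldehyde with Hoechst 33342 and binding quantified by high-content imaging.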

T1 sequence (Q15116 25-288): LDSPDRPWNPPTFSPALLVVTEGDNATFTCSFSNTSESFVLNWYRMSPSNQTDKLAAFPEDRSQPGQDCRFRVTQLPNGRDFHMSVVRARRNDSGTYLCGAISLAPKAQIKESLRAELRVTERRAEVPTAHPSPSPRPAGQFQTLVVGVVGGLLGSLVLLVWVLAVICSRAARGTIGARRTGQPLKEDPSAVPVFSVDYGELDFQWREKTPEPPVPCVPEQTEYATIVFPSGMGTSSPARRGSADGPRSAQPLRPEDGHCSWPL

Structure (SMILES) | IC50 (nM, read-out: CBA Method 3) | IC50 (head μM, read-out: CBA Method 3 μM)
CC(=O)Nc1ccc(-c2ccc(C[C@@H]3NC(=O)[C@H](Cc4cccc(C(F)(F)F)c4)NC(=O)[C@H](CC(=O)O)NC(=O)[C@H](Cc4ccc(C(=O)O)cc4)NC(=O)[C@H](Cc4ccc(OCC(=O)O)cc4)NC(=O)CSC[C@@H](C(=O)N[C@@H](CCN)C(N)=O)NC(=O)[C@H](CCC(=O)O)NC(=O)[C@H](C(C)C)NC(=O)[C@H](CC4CCCCC4)NC(=O)[C@H](CCN)NC(=O)[C@@H](CC(C)C)NC(=O)[C@H](C)N(C)C(=O)[C@H](Cc4ccc(OCC(=O)O)cc4)NC(=O)[C@H](Cc4ccc(-c5ccccc5)cc4)NC3=O)cc2)cc1 [Example 5163] ({CH2CO}-Y(Carboxymethyl)[Phe(4-COOH)]D[Phe(3-CF3)][Bip(4'-NHAc)][Bip]Y(Carboxymethyl)[NMeA][dL][Dab][Cha]VEC[Dab]-NH2; thioether N-14) | 2.5 nM | –
CC(C)C[C@H]1NC(=O)[C@H](C)N(C)C(=O)[C@H](Cc2ccc(OCC(=O)O)cc2)NC(=O)[C@H](Cc2ccc(-c3ccccc3)cc2)NC(=O)[C@H](Cn2cc(C3CC3)nn2)NC(=O)[C@H](Cc2cccc(C(F)(F)F)c2)NC(=O)[C@H](CC(=O)O)NC(=O)[C@H](Cc2ccc(C(=O)O)cc2)NC(=O)[C@H](CN2CCOCC2)NC(=O)CSC[C@@H](C(=O)N[C@@H](CCN)C(N)=O)NC(=O)[C@H](CCC(N)=O)NC(=O)[C@H](C(C)C)NC(=O)[C@H](CC2CCCCC2)NC(=O)[C@H](CCN)NC1=O [Example 5250] | 1.4 nM | –
CC(=O)Nc1ccc(-c2ccc(C[C@@H]3NC(=O)[C@H](Cc4cccc(C(F)(F)F)c4)NC(=O)[C@H](CC(=O)O)NC(=O)[C@H](Cc4ccc(C(=O)O)cc4)NC(=O)[C@H](CN4CCOCC4)NC(=O)CSC[C@@H](C(=O)N[C@@H](CCN)C(N)=O)NC(=O)[C@H](CCC(=O)O)NC(=O)[C@H](C(C)C)NC(=O)[C@H](CC4CCCCC4)NC(=O)[C@H](CCN)NC(=O)[C@@H](CC(C)C)NC(=O)[C@H](C)N(C)C(=O)[C@H](Cc4ccc(C(=O)O)cc4)NC(=O)[C@H](Cc4ccc(-c5ccccc5)cc4)NC3=O)cc2)cc1 [Example 5149] ({CH2CO}-[Ala(morpholin-4-yl)][Phe(4-COOH)]D[Phe(3-CF3)][Bip(4'-NHAc)][Bip][Phe(4-COOH)][NMeA][dL][Dab][Cha]VEC[Dab]-NH2; thioether N-14) | 5.9 nM | –
Cc1cccc(C[C@@H]2NC(=O)[C@H](CC(=O)O)NC(=O)[C@H](Cc3ccc(C(=O)O)cc3)NC(=O)[C@H](C)NC(=O)CSC[C@@H](C(=O)N[C@@H](CCN)C(N)=O)NC(=O)[C@H](CC(=O)O)NC(=O)[C@H](C(C)C)NC(=O)[C@H](CC3CCCCC3)NC(=O)[C@H](CCN)NC(=O)[C@@H](CC(C)C)NC(=O)[C@H](C)N(C)C(=O)[C@H](Cc3ccc(C(=O)O)cc3)NC(=O)[C@H](Cc3ccc(-c4ccccc4)cc3)NC(=O)[C@H](Cc3ccc(C(=O)O)cc3)NC2=O)c1 [Example 5135] ({CH2CO}-A[Phe(4-COOH)]D[Phe(3-Me)][Phe(4-COOH)][Bip][Phe(4-COOH)][NMeA][dL][Dab][Cha]VDC[Dab]-NH2; thioether N-14) | 6.8 nM | –
Cc1cccc(C[C@@H]2NC(=O)[C@H](CC(=O)O)NC(=O)[C@H](Cc3ccc(OCC(=O)O)cc3)NC(=O)[C@H](CC3CCCCC3)NC(=O)CSC[C@@H](C(=O)N[C@@H](CCN)C(N)=O)NC(=O)[C@H](CCCN)NC(=O)[C@H](C(C)C)NC(=O)[C@H](CC3CC3)NC(=O)[C@H](CCN)NC(=O)[C@@H](CC(C)C)NC(=O)[C@H](C)N(C)C(=O)[C@H](CCC(N)=O)NC(=O)[C@H](Cc3ccc(-c4ccccc4)cc3)NC(=O)[C@H](Cc3ccc(C(=O)O)cc3)NC2=O)c1 [Example 5192] ({CH2CO}-[Cha]Y(Carboxymethyl)D[Phe(3-Me)][Phe(4-COOH)][Bip]Q[NMeA][dL][Dab][Ala(cPr)]V[Orn]C[Dab]-NH2; thioether N-14) | – | 150 nM
